ChEMBL document CHEMBL1201862, “PubChem BioAssay data set” (2004)
Calls of active or inactive are those of the source.

Legend:
[1] = luciferase reporter signal suppression in cells – H4 neuroglioma cells, luminescence, dose response (AID 1990); assay type: functional, cell-based
[2] = alpha-synuclein stem-loop luciferase translation blockers – H4 neuroglioma cells, luminescence, confirmation (AID 1988); assay type: functional, cell-based
[3] = Luminescence Cell-Based Dose Response HTS to Identify Inhibitors of 5'UTR Stem-Loop Driven Prion Protein mRNA Translation in H4 Neuroglioblastoma Cells. [Related pubchem assays: 1827 (Project Summary), 1813 (Primary HTS)]; assay type: functional
[4] = molecular target: Cytochrome P450 2C9 (Homo sapiens, UniProt P11712)
[5] = molecular target: Cytochrome P450 2D6 (Homo sapiens, UniProt P10635);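 also: CYP2D6 member of a cytochrome P450 panel assay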
[6] = molecular target: T1, Replicative DNA helicase DnaB (Mycobacterium tuberculosis, UniProt P9WMR3); assay: DnaB intein splicing inhibitors, dose response, biochemical, cell-free fluorescence (AID 449749); assay type: functional
T1 sequence (P9WMR3 whole entry): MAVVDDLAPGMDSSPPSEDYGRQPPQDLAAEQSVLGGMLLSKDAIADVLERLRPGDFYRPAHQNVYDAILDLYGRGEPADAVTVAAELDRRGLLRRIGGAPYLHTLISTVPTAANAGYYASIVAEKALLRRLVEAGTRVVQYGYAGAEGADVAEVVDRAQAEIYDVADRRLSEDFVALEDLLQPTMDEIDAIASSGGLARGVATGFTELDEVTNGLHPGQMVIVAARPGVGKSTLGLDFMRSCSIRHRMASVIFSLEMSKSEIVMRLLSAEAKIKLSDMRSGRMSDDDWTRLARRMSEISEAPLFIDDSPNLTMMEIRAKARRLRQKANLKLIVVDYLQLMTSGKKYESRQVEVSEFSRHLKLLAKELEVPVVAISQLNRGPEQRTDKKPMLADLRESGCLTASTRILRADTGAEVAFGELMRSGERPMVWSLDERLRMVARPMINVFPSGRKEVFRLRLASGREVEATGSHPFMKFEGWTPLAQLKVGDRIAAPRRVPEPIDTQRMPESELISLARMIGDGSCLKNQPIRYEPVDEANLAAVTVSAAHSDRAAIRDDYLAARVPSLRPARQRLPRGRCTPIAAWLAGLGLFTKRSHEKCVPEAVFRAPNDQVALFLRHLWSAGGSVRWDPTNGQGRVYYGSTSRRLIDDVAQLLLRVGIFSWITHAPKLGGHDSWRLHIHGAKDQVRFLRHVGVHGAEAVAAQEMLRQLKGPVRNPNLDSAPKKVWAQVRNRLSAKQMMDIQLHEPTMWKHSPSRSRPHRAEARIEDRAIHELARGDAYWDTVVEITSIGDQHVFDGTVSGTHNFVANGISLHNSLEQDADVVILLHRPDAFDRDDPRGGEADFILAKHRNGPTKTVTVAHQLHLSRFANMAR

[7] = molecular target: T2, Protein RecA (Mycobacterium tuberculosis, UniProt P9WHJ3); assay: Fluorescence Cell-Free Homogeneous Dose Retest to Identify Inhibitors of RecA-Intein Splicing Activity. [Related pubchem assays (depositor defined):AID2097, AID2223, AID489010, AID492950]; assay type: functional
T2 sequence (P9WHJ3 whole entry): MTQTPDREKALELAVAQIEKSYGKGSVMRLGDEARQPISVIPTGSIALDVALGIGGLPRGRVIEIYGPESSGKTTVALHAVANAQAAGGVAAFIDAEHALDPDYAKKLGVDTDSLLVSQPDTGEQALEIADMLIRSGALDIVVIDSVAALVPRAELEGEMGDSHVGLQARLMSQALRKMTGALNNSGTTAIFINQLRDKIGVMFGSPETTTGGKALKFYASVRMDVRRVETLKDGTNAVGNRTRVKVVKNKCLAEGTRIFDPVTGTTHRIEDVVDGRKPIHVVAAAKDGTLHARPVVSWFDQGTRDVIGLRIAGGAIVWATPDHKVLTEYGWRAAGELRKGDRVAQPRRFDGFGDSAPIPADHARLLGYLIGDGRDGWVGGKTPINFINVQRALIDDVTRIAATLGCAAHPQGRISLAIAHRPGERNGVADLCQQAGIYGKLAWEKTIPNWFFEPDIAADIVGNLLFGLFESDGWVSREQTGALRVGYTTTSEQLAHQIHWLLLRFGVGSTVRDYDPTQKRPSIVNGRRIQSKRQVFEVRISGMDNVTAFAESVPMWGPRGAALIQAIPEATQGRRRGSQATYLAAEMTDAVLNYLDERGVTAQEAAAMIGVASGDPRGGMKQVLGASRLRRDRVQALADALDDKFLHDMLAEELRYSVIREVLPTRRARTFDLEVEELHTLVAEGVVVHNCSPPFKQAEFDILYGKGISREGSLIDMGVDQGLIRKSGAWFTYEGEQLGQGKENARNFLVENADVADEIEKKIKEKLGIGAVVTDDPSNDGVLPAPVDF

[8] = molecular target: T3, Cytochrome P450 1A2 (Homo sapiens, UniProt P05177);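 also: PubChem cytochrome P450 panel assay, CYP1A2 panel member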
T3 sequence (P05177 whole entry): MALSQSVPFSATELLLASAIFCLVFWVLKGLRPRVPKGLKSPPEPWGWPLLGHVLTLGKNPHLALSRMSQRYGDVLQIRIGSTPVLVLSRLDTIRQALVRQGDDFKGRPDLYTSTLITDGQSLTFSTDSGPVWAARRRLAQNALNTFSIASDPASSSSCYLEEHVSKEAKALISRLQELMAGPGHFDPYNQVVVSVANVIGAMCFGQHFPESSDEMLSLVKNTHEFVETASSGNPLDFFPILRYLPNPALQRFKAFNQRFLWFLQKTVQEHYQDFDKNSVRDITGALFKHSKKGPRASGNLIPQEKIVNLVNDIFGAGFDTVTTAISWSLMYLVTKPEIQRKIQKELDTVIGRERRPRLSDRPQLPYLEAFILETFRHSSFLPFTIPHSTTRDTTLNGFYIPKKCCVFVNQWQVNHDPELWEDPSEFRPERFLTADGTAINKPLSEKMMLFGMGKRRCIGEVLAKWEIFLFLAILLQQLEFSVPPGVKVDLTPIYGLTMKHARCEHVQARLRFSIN

[9] = Luminescence Cell-Based Dose Response HTS to Identify Activators of Luciferase Translation or Activity in H4 […] Cells. [Related pubchem assays: 1829 (Project Summary), 1814 (Primary HTS)]; assay type: functional
[10] = system: H4; assay: Luminescence Cell-Based Dose Response HTS to Identify Activators of 5'UTR Stem-Loop Driven Prion Protein mRNA Translation in H4 Neuroglioblastoma Cells. [Related pubchem assays: 1829 (Project Summary), 1814 (Primary HTS)]; assay type: functional; settings: Homo sapiens
[11] = Trypanosoma cruzi growth suppression in host cells – NIH3T3 host cells, beta-gal luminescence, confirmation (AID 2044); assay type: functional, cell-based;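 also: intracellular parasites grown in NIH/3T3 mouse fibroblasts as host cells; luminescent beta-galactosidase reporter signal from transgenic T. cruzi replicating inside host cells; inhibitors lower the luminescence signal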
[12] = NIH3T3 cell viability loss – ATP luminescence, mouse fibroblasts, counter-screen, dose response (AID 2010); assay type: functional, cell-based;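 also: cells exposed to compound for about 90 hours before reading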
[13] = molecular target: T4, Rac GTPase-activating protein 1 (Homo sapiens, UniProt Q9H0H5); assay: blockers of MgcRacGAP-driven Rac1 GTP hydrolysis – biochemical, ADP Hunter fluorescence, primary and confirmatory, confirmation (AID 624330); assay type: functional
T4 sequence (Q9H0H5 whole entry): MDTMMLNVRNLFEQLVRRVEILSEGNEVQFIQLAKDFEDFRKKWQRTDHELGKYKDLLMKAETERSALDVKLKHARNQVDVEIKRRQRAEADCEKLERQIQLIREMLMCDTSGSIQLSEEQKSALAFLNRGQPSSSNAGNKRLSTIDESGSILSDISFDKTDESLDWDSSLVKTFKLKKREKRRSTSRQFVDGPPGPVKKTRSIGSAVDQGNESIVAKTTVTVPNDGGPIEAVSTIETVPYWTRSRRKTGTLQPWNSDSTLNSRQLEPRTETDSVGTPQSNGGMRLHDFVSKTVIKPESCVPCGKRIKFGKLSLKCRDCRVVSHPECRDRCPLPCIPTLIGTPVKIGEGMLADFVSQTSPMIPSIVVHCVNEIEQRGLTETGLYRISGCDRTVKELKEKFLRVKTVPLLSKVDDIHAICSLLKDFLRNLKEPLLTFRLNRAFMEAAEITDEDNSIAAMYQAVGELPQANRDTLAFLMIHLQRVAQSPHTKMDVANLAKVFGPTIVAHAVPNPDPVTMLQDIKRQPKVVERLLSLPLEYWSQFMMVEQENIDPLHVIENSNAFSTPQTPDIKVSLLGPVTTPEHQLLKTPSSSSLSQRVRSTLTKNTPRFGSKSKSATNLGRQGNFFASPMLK

[14] = molecular target: Cytochrome P450 2C19 (Homo sapiens, UniProt P33261); assay: Cytochrome panel assay with activity outcomes. Panel member name: p450-cyp2c19 Compounds with AC50 equal or less than 10 uM are considered active; assay type: functional; settings: read-out: AC50
Sequence of Cytochrome P450 2C19 (P33261 whole entry): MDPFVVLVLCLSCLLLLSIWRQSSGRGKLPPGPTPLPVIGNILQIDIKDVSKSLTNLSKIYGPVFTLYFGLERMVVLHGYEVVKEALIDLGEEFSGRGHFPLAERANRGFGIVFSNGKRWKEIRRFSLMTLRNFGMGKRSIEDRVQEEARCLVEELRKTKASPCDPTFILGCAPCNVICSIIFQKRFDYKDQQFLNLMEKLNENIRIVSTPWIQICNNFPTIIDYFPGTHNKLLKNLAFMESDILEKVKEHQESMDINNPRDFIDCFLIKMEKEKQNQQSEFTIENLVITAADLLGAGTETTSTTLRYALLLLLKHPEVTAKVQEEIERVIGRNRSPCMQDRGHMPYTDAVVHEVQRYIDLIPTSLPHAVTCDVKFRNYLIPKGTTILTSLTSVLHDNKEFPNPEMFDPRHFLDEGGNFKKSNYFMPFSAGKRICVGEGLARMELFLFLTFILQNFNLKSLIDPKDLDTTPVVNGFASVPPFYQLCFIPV

Sequence of Cytochrome P450 2D6 (P10635 whole entry): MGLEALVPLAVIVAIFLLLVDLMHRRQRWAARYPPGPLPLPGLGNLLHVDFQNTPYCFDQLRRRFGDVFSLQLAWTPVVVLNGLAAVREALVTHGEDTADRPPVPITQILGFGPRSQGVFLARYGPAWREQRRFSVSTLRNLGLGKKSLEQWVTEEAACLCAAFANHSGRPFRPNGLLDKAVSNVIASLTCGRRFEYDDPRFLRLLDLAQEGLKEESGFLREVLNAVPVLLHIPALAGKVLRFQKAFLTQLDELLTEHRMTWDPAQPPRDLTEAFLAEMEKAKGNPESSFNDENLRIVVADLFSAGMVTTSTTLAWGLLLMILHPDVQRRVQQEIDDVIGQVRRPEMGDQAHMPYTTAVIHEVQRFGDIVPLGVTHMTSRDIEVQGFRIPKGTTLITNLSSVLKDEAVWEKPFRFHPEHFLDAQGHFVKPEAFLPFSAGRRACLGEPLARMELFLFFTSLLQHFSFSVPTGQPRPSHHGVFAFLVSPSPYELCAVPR
Sequence of Cytochrome P450 2C9 (P11712 whole entry): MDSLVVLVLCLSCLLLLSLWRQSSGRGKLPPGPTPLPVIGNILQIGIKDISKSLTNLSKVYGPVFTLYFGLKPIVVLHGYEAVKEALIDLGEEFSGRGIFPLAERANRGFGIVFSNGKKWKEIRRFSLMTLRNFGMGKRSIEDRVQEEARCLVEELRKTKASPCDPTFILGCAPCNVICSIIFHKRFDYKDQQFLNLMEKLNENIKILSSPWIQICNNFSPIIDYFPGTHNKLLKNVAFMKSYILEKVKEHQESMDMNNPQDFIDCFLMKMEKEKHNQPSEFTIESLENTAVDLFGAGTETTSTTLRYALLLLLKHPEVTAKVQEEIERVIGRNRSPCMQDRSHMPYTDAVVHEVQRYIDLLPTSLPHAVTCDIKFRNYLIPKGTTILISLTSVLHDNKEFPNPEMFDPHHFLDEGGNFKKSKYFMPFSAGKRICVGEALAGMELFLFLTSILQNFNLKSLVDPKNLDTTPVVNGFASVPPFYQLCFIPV

| SMILES | EC50 [1] | EC50 [2] | EC50 [3] | further results |
| --- | --- | --- | --- | --- |
| CCOc1ccc(NC(=O)NCCN2CCN(c3cccc(C)c3C)CC2)cc1 | > 120 µM (not active) | > 120 µM (not active) | > 120 µM (not active) |  |
| COc1cccc(C(=O)/C=C/c2ccc(SC)cc2)c1 |  |  |  | AC50 [4]: 10 µM (inconclusive); AC50 [5]: 14.1 µM (inconclusive) |
| CCCCOP(=O)(OCCCC)C1(NS(=O)(=O)c2ccccc2)C=CC(=O)c2ccccc21 (stereo not given) |  |  |  | AC50 [6]: 4.8 µM (active); EC50 [7]: 1.82 µM (active) |
| CCN(CC)CCn1cnc2c3c(OC)cccc3nc-2c1O | > 120 µM (not active) | > 120 µM (not active) | > 120 µM (not active) |  |
| CCOC(=O)c1cc(C)sc1NC(=O)CSC1=NCCS1 |  |  |  | AC50 [6]: 12 µM (active); EC50 [7]: 21.4 µM (active) |
| CN(C)CCSc1n[nH]c2nc3ccccc3c-2n1 |  |  |  | AC50 [6]: 7.37 µM (active); EC50 [7]: 2.79 µM (active) |
| O=C(Cn1c(C(F)(F)F)nc2ccccc21)c1ccccc1 |  |  |  | AC50 [8]: 25.1 µM (inconclusive); AC50 [5]: 15.8 µM (inconclusive) |
| CC(C)C[C@H](NC(=O)c1nc[nH]c1C(=O)N[C@@H](CC(C)C)C(=O)OC(C)(C)C)C(=O)OC(C)(C)C | 16.8 µM (active) | 8.87 µM (active) | 13.6 µM (active) |  |
| COc1ccc(N2Cc3ccc(OC)c(OC)c3C2=O)cc1 |  |  |  | EC50 [9]: 0.379 µM (active) |
| O=C(Nc1ccc(Br)cc1)c1ccc(F)c(S(=O)(=O)N2CCN(c3ccccn3)CC2)c1 | > 120 µM (not active) | > 120 µM (not active) | 11.5 µM (active) |  |
| CCCCc1nc2[nH]nc(N)c2c2c1CCCC2 | 12.5 µM (active) | 12 µM (active) | > 120 µM (not active) |  |
| Cc1[nH]c2ccc(-c3nnc(S)n3Cc3ccccc3)cc2c1C | > 120 µM (not active) | > 120 µM (not active) | > 120 µM (not active) |  |
| C[C@H]1CN(S(=O)(=O)c2cccc3cnccc23)CCN1 |  |  |  | AC50 [5]: 39.8 µM (inconclusive) |
| CCOc1ccc(S(=O)(=O)N2CCC(C(=O)NCc3ccco3)CC2)cc1C | 17.5 µM (active) | 37.6 µM (active) | > 120 µM (not active) |  |
| COc1cc(-c2nc3ccccn3c2/N=C/c2ccccc2)ccc1O |  |  |  | AC50 [5]: 28.2 µM (inconclusive) |
| CCn1cc(-c2nnnn2-c2ccc(Cl)cc2)c(=O)c2ccccc21 |  |  |  | AC50 [5]: 11.2 µM (inconclusive) |
| Cn1cnc([N+](=O)[O-])c1Oc1cccc2ccccc12 |  |  |  | AC50 [6]: 28.3 µM (active); EC50 [7]: 13.2 µM (active) |
| COc1ccc(NC(=O)CN(C)C(=O)c2cccc(S(=O)(=O)N3CCCc4ccccc43)c2)cc1 | > 120 µM (not active) | 72.5 µM (active) | > 120 µM (not active) |  |
| COc1cccc(/N=C2\C(Cl)=C(O)OC2OC(=O)c2ccco2)c1 (stereo not given) |  |  |  | AC50 [6]: 22.3 µM (active); EC50 [7]: 14.6 µM (active) |
| COc1cc(OC)cc(C(=O)Oc2ccc(/C=N/Nc3nc4ccccc4s3)cc2OC)c1 |  |  |  | EC50 [9]: 5.84 µM (active); EC50 [10]: 7.55 µM (active) |
| C=CCc1cc(Cl)ccc1OCCN(C)C |  |  |  | EC50 [11]: 0.559 µM (active); EC50 [12]: > 30 µM (not active); IC50 [13]: 157 µM (active) |
| Cc1c(Cl)cccc1N=C(S)N1CCN(S(=O)(=O)c2cccs2)CC1 | > 120 µM (not active) | > 120 µM (not active) | 13.1 µM (active) |  |
| Cn1c(=O)[nH]c(=O)c2c1nc(Sc1ncccn1)n2CCCc1ccccc1 | 12.3 µM (active) | 83.1 µM (active) | 18.4 µM (active) |  |
| NC(=O)c1ccccc1-c1nc(-n2ccnc2)c2ccccc2n1 |  |  |  | AC50 [5]: 39.8 µM (inconclusive) |
| Cc1cccc(CN2CCN(C(C)C(=O)NC(C)c3ccccc3)CC2)c1 (stereo not given) |  |  |  | IC50 [13]: 84.2 µM (active) |
| CCN(CC)CCN1C(=O)C(O)=C(C(C)=O)C1c1ccccc1[N+](=O)[O-] (stereo not given) |  |  |  | AC50 [6]: 10 µM (active); EC50 [7]: 3.71 µM (active) |
| COCC(C)NCc1cccc([N+](=O)[O-])c1 (stereo not given) |  |  |  | AC50 [14]: 11.2 µM (inconclusive); AC50 [4]: 0.398 µM (inconclusive); AC50 [5]: 14.1 µM (inconclusive) |
| CCCn1c(N2CCN(CC(=O)c3c(C)n(C)c4ccc(OC)cc34)CC2)nc2c1c(=O)[nH]c(=O)n2C | 18.9 µM (active) | > 120 µM (not active) | 13.5 µM (active) |  |
| CC(C)c1ccc(/C=N/NC(=O)c2nnn(-c3nonc3N)c2CSC2=NCCS2)cc1 |  |  |  | AC50 [6]: 9.47 µM (active); EC50 [7]: 8.86 µM (active) |
